Test results as given in patent publication US20080274121A1, “Inhibition of Angiogenesis by Mithramycin” (priority 2007, published 2008).

Tests used:
[1] = H727 carcinoid subcutaneous xenograft; conditions: BVZ; abstract does not name the model
Method: (§1) H727 carcinoid tumor volume during treatment course in nude mouse xenograft model for various doses and administration routes of mithramycin.
(§2) H727 and BON-1 cells were injected into the subcutis of nude mice (n=5). When tumors reached around 4 mm in diameter, the animals received different doses of MIT (0.10 [M-10], 0.20 [M-20], and 0.40 [M-40] mg/kg) via intraperitoneal injection twice a week. Tumors were measured once every week, and at each measurement, the mean±standard deviation (SD) tumor volume in the five mice in each group was calculated (A). […] This was one representative experiment of two with similar results.
(§3) H727 and BON-1 cells were injected subcutaneously into nude mice. […] A. Tumors were measured once every week, and at each measurement, the mean±SD tumor volume in the five mice in each group was calculated. B. Mouse body weights were measured. The asterisks indicate the statistical significance (P<0.01) in a comparison between the treated and respective control groups. This was one representative experiment of two with similar results.
(§4) H727 carcinoid cells were injected into the subcutis of groups of mice (n=5). When tumors reached 4 mm in diameter, animals received injections of PBS (controls), MIT (0.10, 0.20, or 0.40 mg/kg (s.c. or i.p.) twice a week. Tumors were measured once every week, and at each measurement, the mean±SD tumor volume in the five mice in each group was calculated.
(§5) Mithramycin-A (MIT, 1 mg/vial crystal powder; lot 055K4011) was purchased from Sigma Chemical Co. (St. Louis, Mo.) and diluted in sterile water. BVZ (25 mg/ml; NDC 50242-060-01) from Genentech, Inc. (South San Francisco, Calif.) was purchased. For animal experiments, MIT (0.1 to 0.4 mg/kg body weight) and BVZ (25 to 100 μg/mouse) were administered by intraperitoneal or subcutaneous injections twice a week or as otherwise stated.
(§6) Female athymic BALB/c nude mice were purchased from The Jackson Laboratory (Bar Harbor, Me.). The mice were housed in laminar flow cabinets under specific pathogen-free conditions and used when they were 8 weeks old.
(§7) H727 and BON-1 tumor cells were injected into the subcutis of mice as described in the Materials and Methods. MIT treatment started when tumor sizes reached around 3-4 mm in diameters. […] Moreover, the residual tumors were harvested and angiogenesis was assessed by CD31 staining.
(§8) Specifically, we injected H727 and BON-1 cells subcutaneously into nude mice. […] We also administered PBS injections to animals as controls.
(§9) H727 and BON-1 cells were injected subcutaneously into nude mice and then administered treatment to them as described in FIG. 20.

[2] = test system: H727 cells; assay: H727 carcinoid subcutaneous xenograft
Method: as §1, §2, §3, §4, §5, §6, §7, §8, §9

[3] = test system: BxPC3 cells; assay: Viable cell count in vitro, BxPC3; type: cell-based, human; conditions: 100 μg/ml BVZ
Method: FIG. 14. Effects of treatment with BVZ and MIT on the growth of and gene expression in human pancreatic cancer cells in vitro. (A) BxPC3 and (B) PANC-1 cells were incubated for 1 to 5 days in a medium alone or a medium containing 100 μg/ml BVZ. The viable cells were counted every 24 hours. C, PANC-1 cells were incubated for 6 to 48 hours in a medium alone or a medium containing 100 μg/ml BVZ. Total protein lysates were harvested from the cell cultures, and the level of Sp1, EGFR, and VEGF protein expression was determined using Western blot analysis. Equal protein-sample loading was monitored by probing the same membrane filter with an anti-glyceraldehyde-3-phosphate dehydrogenase antibody (GAPDH). D and E, PANC-1 cells were treated with MIT at concentrations ranging from 0.1 to 1.2 μM for 24 and 48 hours. (D) Cytotoxicity was assessed using the MTT assay, and (E) the level of gene expression was determined using Western blot analysis. NS, nonspecific.
Effects of treatment with BVZ and MIT on the growth of and gene expression in human pancreatic cancer cells. To further determine whether treatment with BVZ directly impacts gene expression in pancreatic cancer cells, we incubated PANC-1 and BxPC3 cells in a medium alone or a medium containing 100 μg/ml BVZ for 6 to 48 hours.

[4] = test system: H727 cells; assay: Viable cell count in vitro, H727; type: cell-based, human; conditions: 0 to 100 μg/ml BVZ, 5 days
Method: FIG. 18. Effects of treatment with BVZ and MIT on the growth of and gene expression in human carcinoid cells in vitro. A. H727 and BON-1 cells were incubated for 5 days in a medium alone or a medium containing 25 to 100 μg/ml BVZ. The viable cells were counted. B. H727 cells were incubated for 5 days in a medium alone or a medium containing 100 μg/ml BVZ. Total protein lysates were harvested from the cell cultures, and the level of Sp1 and VEGF protein expression was determined using Western blot analysis. Equal protein-sample loading was monitored by probing the same membrane filter with an anti-GAPDH. C. H727 and BON-1 cells were treated with MIT at concentrations ranging from 0.1 to 2.5 μM for 24 hours. Cytotoxicity was assessed using the MTT assay.
Effects of treatment with BVZ and MIT on the growth of and gene expression in human LGNET cells. To further determine whether treatment with BVZ directly impacts gene expression in LGNET cells, we incubated H727 and BON-1 cells in a medium alone or a medium containing 0 to 100 μg/ml BVZ for 5 days.

[5] = test system: Sp1 recruitment into the Sp1 promoter; assay: ChIP assay, PANC-1 cells in vitro; type: cell-based, human; conditions: 100 μg/ml BVZ or 0.1 μM MIT, 2 days
Method: FIG. 15. Effects of treatment with BVZ and MIT on Sp1 recruitment into the Sp1 promoter in human pancreatic cancer cells in vitro and in vivo. A, schematic structures of the minimal Sp1 promoters. The nucleotide positions and sequences of Sp1-binding sites and polymerase chain reaction forward and reverse primers flanking those sites for ChIP assay are shown. B, Sp1 and VEGF promoter reporter constructs were transfected into PANC-1 cells in triplicate and incubated for 12 hours. The cells were then incubated for another 24 hours in a medium alone or a medium containing 100 μg/ml BVZ or 0.1 μM MIT. Total protein lysates were harvested from the cell cultures for measurement of Sp1 and VEGF promoter activity using a luciferase assay kit. The relative Sp1 and VEGF promoter activities were assessed, and the activity in treated groups was expressed as the fold change of that in their respective control groups. C and D, chromatin was extracted from (C) PANC-1 cells that were incubated in vitro for 2 days in a medium alone or a medium containing 100 μg/ml BVZ or 0.1 μM MIT and (D) tumors formed by PANC-1 cells in nude mice that received treatment as described in FIG. 2A. […]

In the case of bevacizumab [BVZ], the “human neuroendocrine tumor growth” value [1] is reported as “suppressed human neuroendocrine tumor growth in nude mice in a dose-dependent manner”, the “antitumor activity at low dose” value ([2]; BVZ 25 μg, MIT 0.10 mg/kg, alone or combined, i.p. twice a week) is reported as “marginal antitumor activity” and the body weight ([2]; BVZ alone) is reported as “no discernable effects on body weight”. The animal survival ([2]; compared with PBS, 160 days) was “slightly increased survival rate”, the “cell growth in vitro” value [3] was “did not affect the growth” and the “cell growth in vitro” value [4] was “did not affect the growth”. The “Sp1 recruitment to its own promoter” value [5] was “did not affect Sp1 recruitment”.
